Measurements reported in patent US11397182B2, “Methods for prognosing and preventing metastatic liver disease” (CORNELL UNIVERSITY, priority 2014, dated 2022).

Legend:
TGF-beta type I receptor = target: T1, TGF-beta type I receptor (Mus musculus, UniProt Q64729); test: Systemic TGFβ receptor inhibition during PAN02 exosome education, liver immunofluorescence; assay type: in vivo; details: A83-01 i.p. during the three-week course of PAN02 exosome education
T1 construct: from tissue; host or cells: living C57Bl/6 mice; liver analysed by immunofluorescence
T1 sequence (Q64729 30-503): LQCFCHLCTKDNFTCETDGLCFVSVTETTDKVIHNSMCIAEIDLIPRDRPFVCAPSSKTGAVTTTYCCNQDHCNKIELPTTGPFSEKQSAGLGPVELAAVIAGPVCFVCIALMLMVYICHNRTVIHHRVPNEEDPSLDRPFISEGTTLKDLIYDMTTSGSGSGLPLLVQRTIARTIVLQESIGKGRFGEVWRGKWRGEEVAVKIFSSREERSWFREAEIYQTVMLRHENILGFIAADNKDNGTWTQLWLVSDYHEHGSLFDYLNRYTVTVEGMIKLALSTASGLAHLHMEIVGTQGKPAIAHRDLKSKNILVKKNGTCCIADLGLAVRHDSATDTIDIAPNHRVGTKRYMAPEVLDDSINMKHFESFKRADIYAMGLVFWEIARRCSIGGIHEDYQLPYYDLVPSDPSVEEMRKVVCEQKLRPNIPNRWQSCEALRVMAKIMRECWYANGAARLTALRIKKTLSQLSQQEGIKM
Experimental: Five micrograms of total exosomal protein was injected into the retro-orbital venous sinus in a total volume of 100 μl PBS. For education experiments, mice received 5 μg of exosomes every other day, 3 times a week. For exosome-tracking experiments, purified exosomes were fluorescently labelled using PKH67 membrane dye (Sigma). Labelled exosomes were washed in 20 ml of PBS, collected by ultracentrifugation, and resuspended in PBS. In experiments involving evaluation of exosome incorporation, labelled exosomes were injected 24 h before tissue collection and analysis for exosome^+ cells was conducted by flow cytometry or immunofluorescence. For exosome-tracking experiments, 5 μg of non-tumour exosomes from normal pancreas were used as controls. Unlabeled exosomes were used as controls of signal specificity. For education experiments, retro-orbital injection of PBS or normal pancreata exosomes was used in control groups.
For systemic TGFβ receptor inhibition, mice were treated with intraperitoneal injections of A83-01 (Santa Cruz). Mice were administered 10 μg of A83-01 (diluted in 100 μl of dimethylsulphoxide) per gram of mouse weight for a total of 9 doses, every other day, for the three weeks of PAN02 exosome education.
For histological analysis, tissues were dissected and fixed in a mix of 2% PFA and 20% sucrose solution overnight, and then embedded in Tissue-tek O.C.T. (Electron Microscopy Sciences). Blocks were frozen in a dry ice and ethanol bath. […] GFP and mCherry′ cells were detected by their intrinsic signal. Fluorescent images were obtained using a Nikon confocal microscope (Eclipse TE2000U) and analyzed using Nikon software (EZ-C1 3.6). FN and αSMA expression were quantified using ImageJ Software (NIH) by determining the ratio between the areas of FN and DAPI staining, expressed in arbitrary units (a.u.).

fibronectin = test: Tamoxifen-driven conditional FN knockout during PAN02 exosome education, liver immunofluorescence; assay type: in vivo, mouse; details: tamoxifen treatment of Rosa-CreER+; Fn fl/fl mice during PAN02 exosome education
Source text: To generate inducible FN knockout mice, we crossed B6; 129-Gt(ROSA)26SOR^tm1(cre/ERT2)Tyj/J mice expressing tamoxifen-sensitive Cre under the Gt(Rosa)26 or promoter (Jackson Laboratories, stock 008463) with mice homozygous for a floxed allele of fibronectin (Fn^fl/fl, generously provided by R. Fässler, Max Planck Institute of Biochemistry) (Sakai et al., “Plasma Fibronectin Supports Neuronal Survival and Reduces Brain Injury Following Transient Focal Cerebral Ischemia but is Not Essential for Skin-Wound Healing and Hemostasis,” Nat. Med. 7:324-330 (2001), which is hereby incorporated by reference in its entirety). […] For verification of Fn deletion, liver FN expression was evaluated by immunofluorescence.
For histological analysis, tissues were dissected and fixed in a mix of 2% PFA and 20% sucrose solution overnight, and then embedded in Tissue-tek O.C.T. (Electron Microscopy Sciences). […] GFP and mCherry′ cells were detected by their intrinsic signal. Fluorescent images were obtained using a Nikon confocal microscope (Eclipse TE2000U) and analyzed using Nikon software (EZ-C1 3.6). FN and αSMA expression were quantified using ImageJ Software (NIH) by determining the ratio between the areas of FN and DAPI staining, expressed in arbitrary units (a.u.).

Structure (SMILES) | F4/80+ macrophage migration to the liver (TGF-beta type I receptor) | FN deposition in the liver (TGF-beta type I receptor) | frequency of αSMA+ hStCs in the liver (TGF-beta type I receptor) | FN deposition in the liver (fibronectin) | αSMA expression in the liver (fibronectin)
Cc1cccc(-c2nn(C(=S)Nc3ccccc3)cc2-c2ccnc3ccccc23)n1 [A83-01, 3-(6-Methyl-2-pyridinyl)-N-phenyl-4-(4-quinolinyl)-1H-pyrazole-1-carbothioamide] | reduced | reduced | reduced |  | 
CC/C(=C(\c1ccccc1)c1ccc(OCCN(C)C)cc1)c1ccccc1 [tamoxifen] |  |  |  | reduced to control | not affected
